Measured values taken from patent publication US20240247250A1, “COMPOSITIONS AND METHODS FOR MODIFYING DNA” (The Regents of the University of California, priority 2021, published 2024).
“Also recorded” adds a separate entry of the source.

Target: tRNA guanine transglycosylase (TGT) (Escherichia coli, UniProt P0A847)
Assay: TGT labeling of DNA/RNA hairpin oligos with PreQ1 probes, urea PAGE gel shift
Type: biochemical, E. coli
Conditions: for turn over by TGT: extended stem DNA analog of ECYA1 with minimal recognition element mutations, denaturing urea PAGE shift and intensity; for labeling of the representative DNA hairpin substrate by functional PreQ1 probes: urea PAGE gel shift assays; for labeled product: 17 nucleotide DNA hairpins derived from cognate tRNA anticodon loops
[1] = urea PAGE gel shift and intensity

tRNA guanine transglycosylase (TGT), sequence (P0A847 whole entry): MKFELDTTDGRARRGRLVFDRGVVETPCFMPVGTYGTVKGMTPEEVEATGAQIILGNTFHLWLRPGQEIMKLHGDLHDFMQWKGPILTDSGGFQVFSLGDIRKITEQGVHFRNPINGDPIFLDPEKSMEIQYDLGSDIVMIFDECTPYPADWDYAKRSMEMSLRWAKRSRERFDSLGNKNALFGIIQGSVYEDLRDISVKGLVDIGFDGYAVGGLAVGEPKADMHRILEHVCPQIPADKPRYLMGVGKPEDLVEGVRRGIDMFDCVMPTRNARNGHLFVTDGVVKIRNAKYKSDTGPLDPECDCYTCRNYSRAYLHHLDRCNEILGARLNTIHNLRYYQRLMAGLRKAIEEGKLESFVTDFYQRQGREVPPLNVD

For GGGAGCAGACUGUAAATCTGCTCCC [dUdGdU], the “turn over by TGT” value (PreQ1-biotin probe) was “comparable turn over to the wildtype RNA substrate”.
With Alexa Fluor 647 the “labeling of the representative DNA hairpin substrate by functional PreQ1 probes” value (“labeling … by functional PreQ1 probes” below) was “Quantitative labeling”.
In the case of CCTGCCTGTCACGCAGG, the labeled product [1] is reported as roughly 40%.
GGGAGCAGACTGTAAATCTGCTCCC [dTdGdT] was tested, and the “turn over by TGT” value (PreQ1-biotin probe) was “no appreciable turn over”.
For GGGAGCAGACTGUAAATCTGCTCCC [dTdGdU], the “turn over by TGT” value (PreQ1-biotin probe) was “comparable turn over to the wildtype RNA substrate”.
For “GCAGACTGTAAATCTGC [tyrosine based counterpart]”, the labeled product [1] was roughly -5%.
With `Nc1nc2[nH]cc(CNCCCCCCNC(=O)CCCCC3SCC4NC(=O)NC43)c2c(=O)[nH]1` (stereo not shown) [PreQ1-biotin] the “labeling … by functional PreQ1 probes” value was “Quantitative labeling”.
CTGGATTGTGATTCCAG showed a labeled product [1] of roughly 40%.
In the case of TAMRA, the “labeling … by functional PreQ1 probes” value is reported as “Quantitative labeling”.
For GGGAGCAGACUGTAAATCTGCTCCC [dUdGdT], the “turn over by TGT” value (PreQ1-biotin probe) was “no appreciable turn over”.
With CTGGACTGTCACTCCAG [His(stem)-Asp(loop)] the labeling efficiency (composite hairpins with swapped stems and loops, urea PAGE gel shift and intensity) was “over 50%”.
In the case of CTGGATTGTCCTTCCAG [SEQ ID NO:21], the “labeling with PreQ1-biotin confirmed by LCMS” value (LCMS analysis of PreQ1-biotin labeled sequence) is reported as “efficient labeling” and the “labeling of hairpin or loop sequence appended to longer ssDNA” value (PreQ1-biotin probe, urea PAGE gel shift, listed as TAG2 DNA hairpin) is reported as “can be modified internally; also recorded: can be modified at either end of a DNA sequence of interest”.
